Reference: patent US10155743B2, “Glutarimide derivatives, use thereof, pharmaceutical composition based thereon and methods for producing glutarimide derivatives” (OBSCHESTVO S OGRANICHENNOI OTVETSTVENNOSTIYU …, priority 2013, dated 2018)
Read-outs that look alike come from different tables or passages of the source.

Assays:
[1] = test system: Coxsackie A2-virus (strain HCXV A2); assay: Antiviral activity against Coxsackie virus in vivo (mortality of infected mice); design: species or system white mice; details: for inhibition in vivo at 30 mg/kg / mortality at 30 mg/kg: Mus musculus, po; for inhibition in vivo at 30 mg/kg: 168 h, read-out: Protective index (%); for mortality at 30 mg/kg: 360 h, read-out: Total mortality rate, %; for Average expectancy life (days), Vs. control: difference to virus control
[2] = test system: mucous membrane of nasal passages, formalin-induced acute rhinosinusitis; assay: Acute rhinosinusitis rat model (induced by intranasal 7.5% formalin solution); assay type: in vivo, Wistar rats; details: rats; for Macroscopic changes in the mucous membrane of nasal passages: Muculent or mucopurulent catarrh (number of animals) / Macroscopic changes in the mucous membrane of nasal passages: Without changes (number of animals): tested compounds 27 mg/kg for 7 days, count out of n of the group
Experimental: Morphological studies of histologic preparations were conducted with a Leica DMLS light-optical microscope (Leica Microsystems, Germany). Micro-morphometric assessment was performed by using an ocular micrometer on a Leica DMLB microscope.
Acute rhinosinusitis was induced by intranasal administration of 20 μl of 7.5% formalin solution (aqueous solution comprising 40% formaldehyde, 8% methyl alcohol, and 52% water) to each nasal passage of rats.
Administration of formalin to rat nasal passages leads to the dissemination of inflammation to adjacent tissues, resulting in a clinical pattern similar to the symptoms of rhinosinusitis in a human.
After an acclimatization period, the following groups were formed: • intact animals administered intragastrically a saline solution in an amount of 0.2 ml, the induction of acute rhinosinusitis was not performed; • a control group consisted of the animals administered intragastrically a saline solution in an amount of 0.2 ml for 7 days after induction of acute rhinosinusitis; • animals administered intramuscularly dexamethasone at a dose of 0.33 mg/kg for 7 days after induction of acute rhinosinusitis; and • animals administered the tested compounds at a dose of 27 mg/kg for 7 days after induction of acute rhinosinusitis.
Clinical observation of each animal was performed every day at least twice daily.
In the experiment with Wistar rats, the induction of acute rhinosinusitis by administration of a 7.5% formalin solution to nasal passages caused in the control group of animals pronounced pathological changes characterizing the development of an acute inflammation process in the nasal mucous. The caused pathology was characterized by congestion, hyperplasia, focal necrosis of the nasal meatus mucous membrane, an increased number of caliciform cells, pronounced infiltration by mononuclear cells and leucocytes, and mucus hyperproduction by submucosal glands.
The mucous and submucous membranes of both nasal passages (respiratory and olfactory regions) of the experimental animals were subjected to a morphological analysis to evaluate a specific activity of the compounds.
For microscopic examination, the sections were stained with hematoxylin and eosin. Detection of acid mukopolysaccharides, the production of which is increased in an inflammation, was performed by histochemical staining of the preparation with Alcian Blue (pH 2.5). The comparison and histological evaluation of changes were performed versus the group of intact rats.
After slaughter, the gross appearance of inflammation in the nasal passages was studied in each animal. Histological, hystochemical and morphological studies of rats were intended to evaluate the following characteristics of nasal passages: congestion of the mucous membrane; hyperplasia and necrosis of nasal epithelium, the number of caliciform cells within 1 mm of the mucous membrane of the nasal septum, and the character of inflammation.
In this study, the efficiency of the mucociliary system was evaluated by the number of caliciform cells and, as a consequence, microscopic changes in the mucous membrane of the nasal passages.

[3] = test system: influenza virus strain A/California/07/09 (H1N1) pdm09; assay: animal or person; assay type: in vivo, white outbred female mice; details: unidentified influenza virus, H1N1, in Mus musculus, po, 336 h, read-out: Mortality rate, %
[4] = mice, 10LD50 HCXV A2, 30 mg/kg orally once daily for 7 days
[5] = mice, 10LD50 HCXV A2 i.m., 30 mg/kg orally once daily for 7 days from 24 h after infection, 15 days monitoring

CC1CC(=O)N(CCc2cnc[nH]2)C(=O)C1 [Compound 2]
inhibition in vivo at 30 mg/kg [1, 4]: 40% | mortality at 30 mg/kg [1, 5]: 42.9% | Average expectancy life (days), Relative [1, 4]: 22.4 days | Average expectancy life (days), Vs. control [1, 4]: +9.5 days | Macroscopic changes in the mucous membrane of nasal passages: Muculent or mucopurulent catarrh (number of animals) [2]: 3 | Macroscopic changes in the mucous membrane of nasal passages: Without changes (number of animals) [2]: 5

O=C1CCCC(=O)N1CCc1nc2ccccc2s1 [Compound 7, 1-[2-(1H-benzothiazol-2-yl)ethyl]piperidine-2-dione]
Macroscopic changes in the mucous membrane of nasal passages: Muculent or mucopurulent catarrh (number of animals) [2]: 13 | Macroscopic changes in the mucous membrane of nasal passages: Without changes (number of animals) [2]: 5

O=C1CCCC(=O)N1CCc1ncc[nH]1 [Compound 8]
The number of caliciform cells within 1 mm of the mucous membrane of the nasal septum ([2]; tested compounds 27 mg/kg for 7 days after induction, M ± m): 34.5 ± 0.8 | Macroscopic changes in the mucous membrane of nasal passages: Muculent or mucopurulent catarrh (number of animals) [2]: 3 | Macroscopic changes in the mucous membrane of nasal passages: Without changes (number of animals) [2]: 3

O=C1CCCC(=O)N1CCc1ccsc1 [Compound 12]
inhibition in vivo at 30 mg/kg [1, 4]: 45% | mortality at 30 mg/kg [1, 5]: 40% | Average expectancy life (days), Relative [1, 4]: 24.9 days | Average expectancy life (days), Vs. control [1, 4]: +14.2 days | mortality at 30 mg/kg [3]: 60%

O=C1CCCC(=O)N1CCc1ccccn1 [Compound 13]
inhibition in vivo at 30 mg/kg [1, 4]: 36% | mortality at 30 mg/kg [1, 5]: 46.7% | Average expectancy life (days), Relative [1, 4]: 19.0 days | Average expectancy life (days), Vs. control [1, 4]: +8.3 days

O=C1CCCC(=O)N1CCN1CCCCC1 [Compound 14]
inhibition in vivo at 30 mg/kg [1]: 36% | mortality at 30 mg/kg [1]: 50% | Average expectancy life (days), Relative [1, 4]: 21.4 days | Average expectancy life (days), Vs. control [1, 4]: +10.4 days

COC(=O)C(Cc1c[nH]c2ccccc12)N1C(=O)CCCC1=O (stereo not shown) [Compound 21]
Macroscopic changes in the mucous membrane of nasal passages: Muculent or mucopurulent catarrh (number of animals) [2]: 5 | Macroscopic changes in the mucous membrane of nasal passages: Without changes (number of animals) [2]: 3

O=C1CCCC(=O)N1CCCn1ccnc1 [Compound 24]
mortality at 30 mg/kg [3]: 55%

CCOC(=O)C(Cc1c[nH]c2ccccc12)N1C(=O)CCCC1=O (stereo not shown) [Compound 27]
Macroscopic changes in the mucous membrane of nasal passages: Muculent or mucopurulent catarrh (number of animals) [2]: 4 | Macroscopic changes in the mucous membrane of nasal passages: Without changes (number of animals) [2]: 4

O=C1CC(O)CC(=O)N1CCc1cnc[nH]1 [Compound 28]
Macroscopic changes in the mucous membrane of nasal passages: Muculent or mucopurulent catarrh (number of animals) [2]: 4 | Macroscopic changes in the mucous membrane of nasal passages: Without changes (number of animals) [2]: 4

O=C1CCC(O)C(=O)N1CCc1cnc[nH]1 (stereo not shown) [Compound 29]
inhibition in vivo at 30 mg/kg [1, 4]: 50% | mortality at 30 mg/kg [1, 5]: 35.7% | Average expectancy life (days), Relative [1, 4]: 26.7 days | Average expectancy life (days), Vs. control [1, 4]: +13.7 days

CC(Cc1cnc[nH]1)N1C(=O)CCCC1=O (stereo not shown) [Compound 32]
inhibition in vivo at 30 mg/kg [1, 4]: 33% | mortality at 30 mg/kg [1, 5]: 42.9% | Average expectancy life (days), Relative [1, 4]: 22.2 days | Average expectancy life (days), Vs. control [1, 4]: +10.0 days | Macroscopic changes in the mucous membrane of nasal passages: Muculent or mucopurulent catarrh (number of animals) [2]: 5 | Macroscopic changes in the mucous membrane of nasal passages: Without changes (number of animals) [2]: 3

O=C1CCCC(=O)N1CCCc1c[nH]cn1 [Compound 33]
Macroscopic changes in the mucous membrane of nasal passages: Muculent or mucopurulent catarrh (number of animals) [2]: 5 | Macroscopic changes in the mucous membrane of nasal passages: Without changes (number of animals) [2]: 3
